Experimental data as given in patent US10413552B2, “Method of treating medulloblastoma” (THE HOSPITAL FOR SICK CHILDREN, priority 2015, dated 2019).

Experiments:
[1] = system: D458 cerebellar xenografts; experiment: D458 intracranial medulloblastoma xenograft; format: in vivo, athymic nude mice; conditions: for survival / survival difference, log-rank test p: D458 xenograft; for survival / medulloblastoma growth (bioluminescence imaging, H&E): s.c. for 2 weeks; for survival: Kaplan-Meier; for medulloblastoma growth (bioluminescence imaging, H&E): D458-luciferase xenograft, vs DMSO-treated controls; for survival difference, log-rank test p: vs vehicle control
Description: (§1) Medulloblastoma intracranial xenografts were established in 5-6 week old athymic nude mice (Charles River Laboratories). Medulloblastoma cells (250,000 D425 and D458 cells) were implanted in the right cerebellum of mice. Six days after cell inoculation, animals were randomized into treatment cohorts, which included subcutaneous injections with vehicle control (10% DMSO), PL (50 mg/kg, daily for 2 weeks), ALP (30 mg/kg, daily for 2 weeks), RTL (20 mg/kg, every other day for 2 weeks) or FZ (50 mg/Kg, daily for 2 weeks).
In animals bearing D458-GFP/Luciferase xenografts, bioluminescence imaging was performed at 6 days after intracranial injection. Mice with a detectable signal were included in the study and tumor growth was monitored at one-week intervals using the IVIS Spectrum Optical In-vivo Imaging System (Caliper Life Sciences).
(§2) Animals with progressive neurological signs or weight loss greater than 20% were euthanized and the brains harvested and fixed in 10% formalin.
(§3) The Kaplan-Meier estimate and a log-rank test were used to generate survival curves. Experiments were performed in triplicate and results were expressed as mean±SEM. Statistical analysis was performed using GraphPad Prism 5 Software.
The efficacy of PL, ALP, RTL and FZ in established medulloblastoma xenografts representative of Group 3 medulloblastomas was then determined. D458 cells expressing luciferase were implanted in the right cerebellum of nude mice and bioluminescence imaging was performed at 6 days post inoculation. Animals with a detectable signal were treated by subcutaneous injection with PL (50 mg/kg, daily for 2 weeks), ALP (30 mg/kg, daily for 2 weeks), RTL (20 mg/kg, every other day for 2 weeks), FZ (50 mg/Kg, daily for 2 weeks) or vehicle control (10% DMSO).

[2] = system: D425 and D458 medulloblastoma cells; experiment: Gene expression profiling and Gene Set Enrichment Analysis (GSEA) after treatment; format: cell-based, human
Description: D425 and D458 medulloblastoma cells were treated with 5 μM of PL, 5 μM of ALP or DMSO (control) for 48 h. RNA isolation was performed using the RNeasy Mini Kit (Qiagen) and gene expression data were generated using the Human PrimeView Arrays. Gene Set Enrichment Analysis (GSEA) was performed using gene sets from the National Cancer Institute (NCI), Gene Ontology (GO), Kyoto Encyclopedia of Genes and Genomes (KEGG), Protein Families (PFAM) and Biocarta pathway databases. Significant gene sets were identified (FDR<0.05; p<0.01) and visualized in Cytoscape and Enrichment Map software.
To identify downstream transcriptional events induced by ALP, genomic profiling of Group 3 medulloblastoma cell lines (D425 and D458) was conducted after treatment for 48 hours. […] Gene Set Enrichment Analysis (GSEA) was performed with gene sets compiled from the National Cancer Institute (NCI), Gene Ontology (GO), Kyoto Encyclopedia of Genes and Genomes (KEGG), Protein Families (PFAM) and Biocarta pathway databases. To visualize significant gene sets (FDR<0.05; p<0.01) as interaction networks, Cytoscape and Enrichment Map were used.

[3] = system: D425 cerebellar xenografts; experiment: D425 intracranial medulloblastoma xenograft; format: in vivo, athymic nude mice; conditions: for survival: Kaplan-Meier; for medulloblastoma growth (H&E): vs control group
Description: as §1, §2, §3

[4] = system: D425 and D458 medulloblastoma cells; experiment: Western blot, induction of apoptosis; format: cell-based; conditions: 48 h treatment
Description: (§4) Cell lysates were prepared by adding RIPA buffer (Sigma) containing protease inhibitors (F. Hoffman-La Roche AG), 0.2 M sodium orthovanadate, 0.2 M sodium pyrophosphate and 0.2 M sodium fluoride. The Pierce BCA Protein Assay Kit (Thermo Scientific) was used to determine protein concentration. […] The following antibodies were used: PARP (1:1,000; Cell Signaling), AKT (1:1,000; Cell Signaling), phospho-AKT (1:2,000; Ser473, Cell Signaling), α-tubulin (1:1,000; Cell Signaling), anti-mouse IgG conjugated to horseradish peroxidase (1:5,000; Amersham Biosciences) and anti-rabbit IgG conjugated to horseradish peroxidase (1:5,000; Cell Signaling).
(§5) To determine the mechanisms by which PL and ALP exert their antitumor effect, D425 and D458 medulloblastoma cells were treated with both drugs for 48 h.

[5] = system: AKT pathway; experiment: Western blot, AKT pathway inhibition; format: cell-based; conditions: 48 h treatment, D458 and D425 cells
Description: as §4, §5

[6] = system: D425 and D458 medulloblastoma cell lines; experiment: MTS cell proliferation assay in Group 3 medulloblastoma cell lines; format: cell-based; conditions: 48 hours treatment
Description: (§6) FIG. 1 illustrates the cytotoxic effect of piperlongumine, alsterpaullone, rottlerin and flunarizine in Group 3 medulloblastoma cell lines. Established medulloblastoma cell lines (D425 and D458) and a fetal neural stem cell line (hf5281) were treated with various concentrations of (a) piperlongumine, (b) alsterpaullone, (c) rottlerin and (d) flunarizine for 48 hours. Cell viability was measured by MTS assay. Data represent mean of triplicates±SEM.
(§7) D425 and D458 cells were grown as suspension cultures and seeded in 96-well microplates at 10,000 cells per well. Fetal normal human brain cells (hf5281) were grown as an adherent culture and seeded in 96-well microplates at 4,000 and 5,000 cells per well. Cells were treated for 48 h with different concentrations of Piperlongumine (PL; INDOFINE Chemical Company), alsterpaullone (ALP; A, G. Scientific), rottlerin (RTL; A. G. Scientific) and flunarizine (FZ; Sigma) or DMSO (control). Cell viability was determined by MTS proliferation assay (3-(4,5-dimethylthiazol-2-yl)-5-(3-carboxymethoxyphenyl)-2-(4-sulfophenyl)-2H-tetrazolium) and the absorbance was measured at 490 nm (CellTiter 96 Aqueous One Solution Reagent; Promega). Three independent experiments were performed with 16 repeats per treatment condition.

[7] = system: hf5281 fetal normal human brain cells; experiment: MTS cell proliferation assay in fetal normal human brain cells; format: cell-based; conditions: hf5281, up to the highest concentration tested of 10 μM
Description: as §6, §7

[8] = D425 and D458, 5 μM, 48 h vs DMSO, rank 1
[9] = D425 and D458, 5 μM, 48 h vs DMSO, rank 2
[10] = D425 and D458, 5 μM, 48 h vs DMSO, rank 3
[11] = D425 and D458, 5 μM, 48 h vs DMSO, rank 4
[12] = D425 and D458, 5 μM, 48 h vs DMSO, rank 5
[13] = D425 and D458, 5 μM, 48 h vs DMSO, rank 6
[14] = D425 and D458, 5 μM, 48 h vs DMSO, rank 7
[15] = D425 and D458, 5 μM, 48 h vs DMSO, rank 8
[16] = D425 and D458, 5 μM, 48 h vs DMSO, rank 9
[17] = D425 and D458, 5 μM, 48 h vs DMSO, rank 10

Which survival [1] does the source give for Fc1ccc(C(c2ccc(F)cc2)N2CCN(C/C=C/c3ccccc3)CC2)cc1 [flunarizine] here?
The survival was “not able to prolong survival”.

With O=C1Cc2c([nH]c3ccc([N+](=O)[O-])cc23)-c2ccccc2N1 [alsterpaullone, 9-nitro-7,12-dihydroindolo-[3,2-d][1]benzazepin-6(5)-one] as the molecule, how does the “GSEA enriched pathway Cell Cycle Mitotic: Regulation” value [2, 8] read?
The value was “Down-Regulated”.

What about the “GSEA enriched pathway Systemic Lupus Erythematosus: Regulation” value [2, 8] of the same molecule?
Its value is “Up-Regulated”.

What about the “GSEA enriched pathway Mitotic M M G1 Phases: Regulation” value [2, 9] of the same molecule?
The value was “Down-Regulated”.

What about the “GSEA enriched pathway RNA Pol 1 Promoter Opening: Regulation” value [2, 9] of the same molecule?
The value was “Up-Regulated”.

What about the “GSEA enriched pathway Amyloids: Regulation” value [2, 10] of the same molecule?
The value was “Up-Regulated”.

What about the “GSEA enriched pathway Mitotic Prometaphase: Regulation” value [2, 10] of the same molecule?
Its value is “Down-Regulated”.

And the “GSEA enriched pathway DNA Replication: Regulation” value [2, 11]?
The value was “Down-Regulated”.

And the “GSEA enriched pathway Packaging of Telomere Ends: Regulation” value [2, 11]?
Its value is “Up-Regulated”.

What about the “GSEA enriched pathway G2 M Checkpoints: Regulation” value [2, 12] of the same molecule?
Its value is “Down-Regulated”.

And the “GSEA enriched pathway Olfactory Signaling Pathway: Regulation” value [2, 12]?
Its value is “Up-Regulated”.

And the “GSEA enriched pathway Autoimmune Thyroid Disease: Regulation” value [2, 13]?
The value was “Up-Regulated”.

What about the “GSEA enriched pathway Metabolism of Non Coding RNA: Regulation” value [2, 13] of the same molecule?
The value was “Down-Regulated”.

And the “GSEA enriched pathway Activation of the Pre Replicative Complex: Regulation” value [2, 14]?
Its value is “Down-Regulated”.

What about the “GSEA enriched pathway Asthma: Regulation” value [2, 14] of the same molecule?
Its value is “Up-Regulated”.

What about the “GSEA enriched pathway Cell Cycle: Regulation” value [2, 15] of the same molecule?
The value was “Down-Regulated”.

And the “GSEA enriched pathway Class A1 Rhodopsin Like Receptors: Regulation” value [2, 15]?
Its value is “Up-Regulated”.

What about the “GSEA enriched pathway Activation of ATR in Response to Replication Stress: Regulation” value [2, 16] of the same molecule?
The value was “Down-Regulated”.

And the “GSEA enriched pathway Immunoregulatory Interactions Between a lymphoid and a non lymphoid Cell: Regulation” value [2, 16]?
The value was “Up-Regulated”.

What about the “GSEA enriched pathway Cell Cycle Checkpoints: Regulation” value [2, 17] of the same molecule?
Its value is “Down-Regulated”.

And the “GSEA enriched pathway RNA Pol 1 Transcription: Regulation” value [2, 17]?
Its value is “Up-Regulated”.

And the “gene expression change vs DMSO-treated cells” value ([2]; D425 and D458, 48 hours, MYC, CDK7, RB1, CDK6, CCNB1, CDK5RAP2, CDK1, CDKN2C)?
The value was “down-regulation of genes involved in cell cycle”.

What about the survival [3] of the same molecule?
Its survival is “significantly increase survival”.

What about the “medulloblastoma growth (H&E)” value [3] of the same molecule?
Its value is “reduce medulloblastoma growth”.

What about the “medulloblastoma growth (bioluminescence imaging, H&E)” value [1] of the same molecule?
The value was “Marked reduction in medulloblastoma growth”.

And the survival [1]?
Its survival is “significant increase in survival”.

What about the “survival difference, log-rank test p” value [1] of the same molecule?
The value was 0.0043.

And the “apoptosis (Western blot)” value [4]?
The value was “induced apoptosis”.

And the “AKT pathway activation (Western blot)” value [5]?
The value was “potently inhibited AKT pathway activation at lower concentrations than PL”.

And the “concentration at which cell proliferation was reduced” value [6]?
The value was 1 µM.

And the “reduction in cell proliferation” value [7]?
The value was “little reduction in cell proliferation”.

Which survival [3] does the source give for COc1cc(/C=C/C(=O)N2CCC=CC2=O)cc(OC)c1OC [piperlongumine] here?
Its survival is “significantly increase survival”.

And the “medulloblastoma growth (H&E)” value [3]?
The value was “reduce medulloblastoma growth”.

What about the “medulloblastoma growth (bioluminescence imaging, H&E)” value [1] of the same molecule?
Its value is “Marked reduction in medulloblastoma growth”.

And the survival [1]?
Its survival is “significant increase in survival”.

What about the “survival difference, log-rank test p” value [1] of the same molecule?
Its value is 0.0011.

And the “apoptosis (Western blot)” value [4]?
The value was “induction of apoptosis”.

And the “AKT pathway activation (Western blot)” value [5]?
Its value is “AKT pathway inhibition”.

What about the “concentration at which cell proliferation was reduced” value [6] of the same molecule?
Its value is 5 µM.

And the “reduction in cell proliferation” value [7]?
Its value is “little reduction in cell proliferation”.

Which “medulloblastoma growth (bioluminescence imaging, H&E)” value [1] does the source give for CC(=O)c1c(O)c(C)c(O)c(Cc2c(O)c3c(c(C(=O)/C=C/c4ccccc4)c2O)OC(C)(C)C=C3)c1O [rottlerin] here?
Its value is “Marked reduction in medulloblastoma growth”.

What about the survival [1] of the same molecule?
The survival was “significant increase in survival”.

And the “survival difference, log-rank test p” value [1]?
The value was 0.0262.

And the “concentration at which cell proliferation was reduced” value [6]?
Its value is 5 µM.

And the “reduction in cell proliferation” value [7]?
The value was “little reduction in cell proliferation”.
